Test results published in patent publication US9433667B2, “Cancer vaccines and vaccination methods” (Cedars-Sinai Medical Center, priority 2006, dated 2016).

Tests used:
[1] = tested on: T2 pulsed Her-2 native peptide; assay: IFN-γ production of Her-2 APL-specific CTLs induced in vitro from patient-derived PBMCs; assay type: cell-based, human; conditions: among four CTLs, two HLA-A*0201 GBM patients, P<0.05 vs No. 52
Experimental: FIGS. 3A and 3B are bar graphs that show IFN-γ levels after in vitro induction of CTL in patient-derived PBMCs with native or superagonist Her-2 peptides in accordance with an embodiment of the present invention in two different patients.
(§1) The following protocol can be used to produce antigen specific CTL in vitro from patient derived PBMC. To generate dendritic cells, the plastic adherent cells from PBMCs are cultured in AIM-V medium supplemented with recombinant human GM-CSF and recombinant human IL-4 at 37° C. in a humidified CO2 (5%) incubator. Six days later, the immature dendritic cells in the cultures are stimulated with recombinant human TNF-α for maturation. Mature dendritic cells are then harvested on day 8, resuspended in PBS at 1×10^6 per mL with peptide (2 μg/mL), and incubated for 2 hours at 37° C. Autologous CD8+ T cells are enriched from PBMCs using magnetic microbeads (Miltenyi Biotech, Auburn, Calif.). CD8+ T cells (2×10^6 per well) are cocultured with 2×10^5 per well peptide-pulsed dendritic cells in 2 mL/well of AIM-V medium supplemented with 5% human AB serum and 10 units/mL rhIL-7 (Cell Sciences) in each well of 24-well tissue culture plates. About 20 U/ml of IL-2 is added 24 h later at regular intervals, 2 days after each restimulation. […] After 24 hours incubation, IFN-γ in the medium is measured by ELISA assay. […]

[2] = tested on: T2 pulsed with gp100 native peptide; assay: IFN-γ production of gp100 APL-specific CTLs induced in vitro from patient-derived PBMCs; assay type: cell-based, human; conditions: among six CTLs, two HLA-A*0201 GBM patients, P<0.05 vs gp100 (2M)
Experimental: FIGS. 2A and 2B are bar graphs that show IFN-γ levels after in vitro induction of CTL in patient-derived PBMCs with dendritic cells pulsed with gp100(2M) or superagonist gp100 peptides in accordance with an embodiment of the present invention in two separate patients.
as §1

[3] = tested on: T cells specific for ML-M epitope 19-30; assay: Epitope-specific T cell responses in mice after IV immunization, measured by cell proliferation in vitro; assay type: in vivo, C3H mice; conditions: for T cell response after immunization: IV immunization, lymph node T cells recalled with peptides, FIG. 1
Experimental: FIG. 1 is a graph depicting levels of epitope-specific T cell responses in mice following immunization IV with mouse lysozyme-M (ML-M), a mouse lysozyme peptide (p19-30), and a mouse lysozyme peptide modified with dibasic residues (18R31R), as measured by cell proliferation in vitro. T cells were isolated from lymph nodes of the animals (3 animals per group) and response to each immunogen was measured.
In studies using mouse lysozyme-M (ML-M) as a model self Ag, it was observed that mice of diverse MHC haplotypes were tolerant to native (unmutated) ML-M and peptide forms of certain T cell epitopes. It was hypothesized that tolerance to a given epitope was not an inherent structural characteristic, but was attributable in part to inefficient processing of the epitope, owing either to the absence of a proteolytic cleavage site adjacent to that determinant, or to the inaccessibility to the proteolytic enzyme(s) of an existing cleavage site within that region of the molecule. In either case, the provision of a new proteolytic cleavage site adjacent to a cryptic determinant may permit scission of the peptide at that site, making the previously cryptic epitope region available for binding to the appropriate MHC molecule, and lead to presentation to specific T cells of that determinant as a neodominant epitope on the APC surface. To test this proposition, a dibasic motif, consisting of two contiguous basic amino acid residues, e.g., arg-arg (RR) or arg-lys (RK), was used.
The targeted regions within ML-M included residues 19-31, which contain cryptic epitopes for mice of the H-2^k haplotype, shown in Table 7.

In the case of “H- F M A N V A I P H L -NH2 (H-FMANVAIPHL-NH2) [No. 19]”, the “IFN-γ level of CTL stimulated by the peptide” value [1] is reported as “highest IFN-γ level”.

In the case of “H- Y M D Q V P Y S V -NH2 (H-YMDQVPYSV-NH2) [No. 38]”, the “IFN-γ level of CTL stimulated by the peptide” value [2] is reported as “highest IFN-γ level”.

For “RR-GYYGVSLADWVC-RR (RRGYYGVSLADWVCRR; RR flanking dibasic residues; Synthetically generated peptide) [RR-p18-31-RR]”, the “T cell response after immunization” value [3] was “raised a potent T cell response” and the “in vitro restimulation of T cells primed by RR-p18-31-RR” value ([3]; recall antigen in vitro) was “could be restimulated”.

B1: mouse lysozyme-M (protein, UniProt P08905 19-148, looked up)
Lysozyme C-2: KVYERCEFARTLKRNGMAGYYGVSLADWVCLAQHESNYNTRATNYNRGDQSTDYGIFQINSRYWCNDGKTPRAVNACGINCSALLQDDITAAIQCAKRVVRDPQGIRAWVAWRAHCQNRDLSQYIRNCGV
notes: model self antigen, native (unmutated) mouse lysozyme-M
B1 was tested, and the “T cell response after immunization” value [3] was “failed to respond”.
